From the supplement of paper PMC10307832

How the values were obtained:
Experiment in all cases: relative viability (nuclei count vs DMSO), 5 days (fraction); higher = more cells survive
KIN001-266 + Lapatinib = compound: CCN1CCC(CC1)N2C=C(N=N2)CNC3=CC4=C(C(=CN=C4C(=C3)Cl)C#N)NC5=CC(=C(C=C5)F)Cl [KIN001-266] + CS(=O)(=O)CCNCc1ccc(-c2ccc3ncnc(Nc4ccc(OCc5cccc(F)c5)c(Cl)c4)c3c2)o1 [Lapatinib] (partner 2 µM)
Summary of the method: (§1)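 Five library-drug doses in √10 steps were combined with a fixed anchor-drug dose, or a single drug was given alone, by pin tool to lung cancer cell lines in 1536-well plates the day after seeding. Nuclei were stained and counted after 5 days. Relative viability is the nuclei count in treated wells over that in vehicle wells, taken as the median of duplicate plates.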

KIN001-266 + Crizotinib = compound: CCN1CCC(CC1)N2C=C(N=N2)CNC3=CC4=C(C(=CN=C4C(=C3)Cl)C#N)NC5=CC(=C(C=C5)F)Cl [KIN001-266] + C[C@@H](Oc1cc(-c2cnn(C3CCNCC3)c2)cnc1N)c1c(Cl)ccc(F)c1Cl [Crizotinib] (partner 1 µM)
Summary of the method: as §1

KIN001-266 + Tozasertib = compound: CCN1CCC(CC1)N2C=C(N=N2)CNC3=CC4=C(C(=CN=C4C(=C3)Cl)C#N)NC5=CC(=C(C=C5)F)Cl [KIN001-266] + Cc1cc(Nc2cc(N3CCN(C)CC3)nc(Sc3ccc(NC(=O)C4CC4)cc3)n2)n[nH]1 [Tozasertib] (partner 0.1 µM)
Summary of the method: as §1

KIN001-266 + Decitabine = compound: CCN1CCC(CC1)N2C=C(N=N2)CNC3=CC4=C(C(=CN=C4C(=C3)Cl)C#N)NC5=CC(=C(C=C5)F)Cl [KIN001-266] + Nc1ncn([C@H]2C[C@H](O)[C@@H](CO)O2)c(=O)n1 [Decitabine] (partner 2 µM)
Summary of the method: as §1

Row | Cell Line | relative viability (KIN001-266 + Lapatinib; first compound 0.08 µM) | relative viability (KIN001-266 + Lapatinib; first compound 0.253 µM) | relative viability (KIN001-266 + Lapatinib; first compound 0.8 µM) | relative viability (KIN001-266 + Lapatinib; first compound 2.53 µM) | relative viability (KIN001-266 + Lapatinib; first compound 8 µM) | relative viability (KIN001-266 + Crizotinib; first compound 0.08 µM) | relative viability (KIN001-266 + Crizotinib; first compound 0.253 µM) | relative viability (KIN001-266 + Crizotinib; first compound 0.8 µM) | relative viability (KIN001-266 + Crizotinib; first compound 2.53 µM) | relative viability (KIN001-266 + Crizotinib; first compound 8 µM) | relative viability (KIN001-266 + Tozasertib; first compound 0.08 µM) | relative viability (KIN001-266 + Tozasertib; first compound 0.253 µM) | relative viability (KIN001-266 + Tozasertib; first compound 0.8 µM) | relative viability (KIN001-266 + Tozasertib; first compound 2.53 µM) | relative viability (KIN001-266 + Tozasertib; first compound 8 µM) | relative viability (KIN001-266 + Decitabine; first compound 0.08 µM) | relative viability (KIN001-266 + Decitabine; first compound 0.253 µM) | relative viability (KIN001-266 + Decitabine; first compound 0.8 µM) | relative viability (KIN001-266 + Decitabine; first compound 2.53 µM) | relative viability (KIN001-266 + Decitabine; first compound 8 µM)
1 | HOP-62 | 0.944 | 0.801 | 1.13 | 0.815 | 1.09 | 0.823 | 1.09 | 0.924 | 0.963 | 0.971 | 0.414 | 0.381 | 0.384 | 0.328 | 0.319 | 0.224 | 0.215 | 0.287 | 0.204 | 0.217
2 | LC-2-ad | 0.999 | 0.847 | 1.02 | 0.972 | 0.929 | 0.43 | 0.546 | 0.377 | 0.447 | 0.429 | 0.451 | 0.409 | 0.516 | 0.444 | 0.447 | 0.802 | 0.794 | 0.676 | 0.733 | 0.771
3 | LCLC-97TM1 | 0.836 | 0.868 | 1.14 | 1.04 | 0.844 | 0.327 | 0.289 | 0.242 | 0.21 | 0.24 | 0.196 | 0.209 | 0.186 | 0.171 | 0.223 | 0.22 | 0.226 | 0.226 | – | 0.168
4 | LK-2 | 1.06 | 0.836 | 0.884 | 0.834 | 1.05 | 0.229 | – | 0.219 | – | 0.239 | 0.182 | 0.18 | 0.174 | 0.185 | 0.154 | 0.384 | 0.298 | 0.309 | 0.318 | 0.41
5 | LOU-NH91 | 0.854 | 0.751 | 0.711 | 0.689 | 0.745 | 0.75 | 0.694 | 0.576 | 0.683 | 0.647 | 0.675 | 0.689 | 0.492 | 0.609 | 0.501 | 0.796 | 0.82 | 0.728 | 0.767 | 0.701
6 | LU99A | 1.16 | 1.07 | 1.03 | 0.834 | 0.803 | 0.662 | 0.519 | 0.515 | 0.55 | 0.522 | 0.282 | 0.29 | 0.259 | 0.21 | 0.191 | 0.976 | 1.01 | 0.9 | 0.613 | 0.607
7 | LXF-289 | 0.901 | 0.898 | 0.862 | 0.865 | 0.96 | 0.819 | 0.801 | 0.77 | 0.826 | 0.76 | 0.186 | 0.236 | 0.172 | 0.201 | 0.189 | 0.379 | 0.365 | 0.369 | 0.34 | 0.414
8 | NCI-H23 | 1.22 | 1.12 | 1 | 0.991 | 0.845 | 0.583 | 0.523 | 0.41 | 0.496 | 0.448 | 0.359 | 0.381 | 0.376 | 0.41 | 0.271 | 0.332 | 0.297 | 0.311 | 0.311 | 0.256
9 | NCI-H322M | 0.575 | 0.604 | 0.601 | 0.57 | 0.489 | 0.796 | 0.968 | 0.957 | 0.819 | 0.843 | 0.451 | 0.554 | 0.513 | 0.433 | 0.458 | 0.733 | 0.745 | 0.74 | 0.648 | 0.672
10 | NCI-H358 | 0.493 | 0.497 | 0.483 | 0.407 | 0.372 | 0.537 | 0.794 | 0.656 | 0.454 | 0.268 | 0.107 | 0.129 | 0.132 | 0.0982 | 0.0945 | 0.209 | 0.219 | 0.197 | 0.212 | 0.173
11 | NCI-H460 | 0.891 | 0.933 | 1.13 | 1 | 0.954 | 1.01 | 0.872 | 1.12 | 0.808 | 0.67 | 0.553 | 0.423 | 0.333 | 0.54 | 0.121 | 0.483 | 0.477 | 0.475 | 0.433 | 0.438
12 | NCI-H520 | 0.899 | 0.85 | 1.02 | 0.718 | 0.886 | 0.719 | 0.675 | 0.809 | 0.742 | 0.747 | 0.426 | 0.441 | 0.434 | 0.466 | 0.413 | 0.538 | 0.548 | 0.576 | 0.474 | 0.459
13 | NCI-H596 | 1.09 | 1.07 | 1.17 | 1.06 | 1.01 | 0.989 | 1.21 | 0.895 | 1.08 | 0.925 | 0.882 | 0.893 | 0.881 | 0.925 | 0.786 | 1.13 | 1.19 | 0.967 | 1.07 | 0.99
14 | NCI-H647 | 1.04 | 1.07 | 1.11 | 0.876 | 0.818 | 1.1 | 1.1 | 1.05 | 1.15 | 0.825 | 0.277 | 0.213 | 0.265 | 0.352 | 0.156 | 0.4 | 0.385 | 0.344 | 0.357 | 0.336
